Laboratory results: patent US20210322297A9, “COSMETIC COMPOSITIONS FOR PROTECTION AGAINST LIGHT-INDUCED DAMAGES” (priority 2018, published 2021)
Several values for one entry are separate records, joined by “and”; a condition that tells them apart may be missing. Identical values can stand only once.

System: Human keratinocytes (HaCAT)
Assay: Carbonyl Score analysis: blue light (460 nm)-induced protein oxidative damage (carbonylation)
Assay type: cell-based
From the text: Human keratinocytes (HaCAT) were irradiated in the presence or absence of a composition (C-1) comprising equal weight amounts of extracts (Q), (GS) and (GT) (VitakeloxTM) using an irradiation system available from OxiProteomics®. A solution of N-acetyl-cysteine was used as positive control of protection. Just after irradiation, proteins were extracted from the cells and analyzed. Carbonylated proteins were labeled with specific functionalized fluorescent probes and the resulting samples were resolved by high-resolution electrophoresis. Total proteins were post-stained with SyproTM Ruby protein gel stain. A Carbonyl (protein damage) Score was obtained for each sample after normalization of the fluorescent signal for carbonylated proteins by total proteins. A significant increase in protein oxidative damage was observed upon blue light irradiation. This increase was prevented in the presence of composition (C-1) at two different concentrations (0.01% and 0.005% w/v) and with two times of treatment (6 hours and 24 hours). HaCaT cells were cultured in calcium-free DMEM (Dulbecco's Modified Eagle Medium), with 10% SVF […], at 37° C. and humid atmosphere, supplemented with 5% CO2. Cells were seeded (500.000 cells/well) at day 0 (D0) in multi-well plates containing culture medium and distributed in 8 experimental groups as depicted in Table 1. On day 1 (D1), two solutions of composition (C-1) having two different concentrations (0.01% and 0.005%) were prepared by solubilisation of the composition in the culture medium. Experimental groups 4 and 6 were incubated for 24 hours (t2) with the solutions prior to irradiation. At day 2 (D2), experimental groups 3 and 5 were incubated for 6 hours (t1) prior to blue light irradiation. Groups 7 and 8 were incubated with a solution of NAC (N-acetyl-cysteine) for 6 and 24 hours. On day 2 (D2), the cells were washed and a stress was induced by irradiation with Blue Light (LED source, emission peak at λ=460 nm), using an OxiProteomics® irradiation system. Group 1 was not irradiated. Just after irradiation, cells were collected, snap-frozen and stored at -80° C. for the analysis. Proteins were extracted from cells, quantified by the Bradford method and split into equal amounts for analyses. […] After extraction and solubilisation, proteins in samples were quantified by the Bradford method using calibrated BSA (bovine serum albumin) as standard (Bradford M. Anal. Biochem., 72, 248, 1976). […] Proteins were fixed to the gel and the carbonylated proteins were evidenced by fluorescence scanning. […] Quantification was obtained from each sample, both for carbonylated and total proteins. […]

Q: Which results are given for CC(=O)N[C@@H](CS)C(=O)O [NAC, N-acetyl-cysteine]?
A: Carbonyl Score (NAC 6 h incubation before blue light irradiation, group G-7, carbonylated signal normalized by total protein signal): 0.734 and 0.742 and 0.657; Oxidized proteins (NAC 6 h incubation before blue light irradiation, group G-7, densitometric signal per replicate): 12101.36 and 11379.65 and 10415.94; Carbonyl Score (NAC 24 h incubation before blue light irradiation, group G-8, carbonylated signal normalized by total protein signal): 0.639 and 0.700 and 0.631; Oxidized proteins (NAC 24 h incubation before blue light irradiation, group G-8, densitometric signal per replicate): 9126.82 and 11501.94 and 10859.53
